Like-named read-outs stand apart in the source and are kept apart here.
How the values were obtained:
Assay type in all cases: in vivo
[1] = tested on: northern house mosquito female adults (Culex pipiens pallens); test: Oil spray in (70 cm)^3 glass chamber, northern house mosquito female adults, KT50 and mortality (Experimental Example 2); settings: for mortality at 0.1 %: Culex pipiens
Protocol: (§1) 0.1 Part of each of the present compounds was dissolved in kerosene and made up to 100 parts with kerosene. Thus, the oil spray of each compound was obtained. Ten northern house mosquito female adults (Culex pipiens pallens) and 10 housefly adults (Musca domestica) were liberated in a (70 cm)^3 glass chamber. 0.7 ml of the oil spray was applied and the number of knocked down insects was counted with the lapse of time. The value of KT50 was obtained from the mean knock-down ratio of three replications according to Finney's graphic method. After 10 minutes, the knocked down insects were collected and transferred to a recovery container and fed with a 5% sugar solution. After 24 hours, the dead and alive were examined.

[2] = tested on: Carmine mite (Tetranychus cinnabarinus); test: Carmine mite on potted kidney bean, damage after 10 days (Experimental Example 12); settings: 200-fold aqueous dilution of emulsifiable concentrate of Preparation example 3, 10 ml/pot
Protocol: Carmine mite female adults (Tetranychus cinnabarinus) were made parasitic on leaves of the potted kidney bean (primordial leaf stage) which had elapsed 9 days after sowing, at a rate of 10-15/leaf, and bred at 27° C. for a week in a constant temperature room. […] At this time, a 200-fold aqueous dilute solution of each of the emulsifiable concentrates formulated from the present compounds (2), (6), (8), (9) and (13) according to Preparation example 3 was sprayed at a rate of 10 ml/pot by means of a turn table.

[3] = tested on: housefly female adults (Musca domestica); test: Housefly female adults on treated filter paper in polyethylene cup, mortality after 48 hours (Experimental Example 1)
Protocol: Ten percent emulsifiable concentrates were prepared as in the Preparation example 3.
At the bottom of a polyethylene cup of 5.5 cm in diameter was placed a filter paper of the same size. 0.75 Ml of a 200-fold aqueous dilute solution of each emulsifiable concentrate (corresponding to 500 ppm) was dropped on the filter paper, and 30 mg of sucrose as a food was uniformly placed. Ten housefly female adults (Musca domestica) were liberated in the cup which was then covered with a lid. After 48 hours, the dead and alive were examined to obtain mortality (4 replications).

[4] = tested on: housefly adults (Musca domestica); test: Oil spray in (70 cm)^3 glass chamber, housefly adults, KT50 and mortality (Experimental Example 2); settings: for mortality at 0.1 %: Musca domestica
Protocol: as §1

[5] = tested on: northern house mosquito female adults (Culex pipiens pallens); test: Oil spray in (70 cm)^3 glass chamber, knock down of mosquitoes at 10 minutes (Experimental Example 3); settings: oil sprays of Preparation example 1 (0.2 part in 100), 0.7 ml, 10 minutes after spraying, read-out: KD%
Description: Ten northern house mosquito female adults (Culex pipiens pallens) were liberated in a (70 cm)^3 glass chamber.

[6] = tested on: adult German cockroaches (Blattella germanica); test: Flushing out of German cockroaches from shelter (Experimental Example 8); settings: 0.7 ml of 0.1% oil spray
Protocol: Ten adult German cockroaches (Blattella germanica) were liberated in a plywood-made trigonal prism like shelter with diet and water. The shelter containing cockroaches was made stand opening upward in a glass chamber (70 cm)^3, and 0.7 ml of 0.1% oil spray of each compound was applied to the chamber. The number of flushed out insects was counted with the lapse of time.

[7] = northern house mosquito female adult, 0.1% oil spray, 0.7 ml
[8] = housefly adult, 0.1% oil spray, 0.7 ml
[9] = 200-fold aqueous dilution of emulsifiable concentrate (500 ppm), 48 hours, housefly female adults, read-out: Mortality

| Compound | mortality at 0.1 % ([1]; 24 h) [%] | KT50 [1, 7] [s] | damage of kidney bean by the mites [2] | mortality at 500 µg/mL ([3]; 48 h) [%] | mortality at 0.1 % ([4]; 24 h) [%] | KT50 [4, 8] [s] | pest or weed control at 0.2 % [5] [%] | Flushing out ([6]; 38") [%] | Flushing out ([6]; 75") [%] | Flushing out ([6]; 150") [%] | Flushing out ([6]; 300") [%] | Flushing out ([6]; 600") [%] | mortality at 0.1 % ([1]; northern house mosquito female adult, 0.1% oil spray, 0.7 ml, after 24 hours, read-out: Mortality) [%] | mortality at 500 µg/mL [3, 9] [%] | mortality at 0.1 % ([4]; housefly adult, 0.1% oil spray, 0.7 ml, after 24 hours, read-out: Mortality) [%] |
| --- | --- | --- | --- | --- | --- | --- | --- | --- | --- | --- | --- | --- | --- | --- | --- |
| C#CCN1CC(=O)N(COC(=O)[C@@H]2[C@@H](C=C3CCCC3)C2(C)C)C1=O (relative stereo) [Present compound (8), 1-Propargyl-3-hydantoinylmethyl 2,2-dimethyl-3-cyclopentylidenemethylcyclopropanecarboxylate] | 95 | 75 | hardly any damage was observed | 100 | 25 | 150 |  |  |  |  |  |  |  |  |  |
| C=CCN1CC(=O)N(COC(=O)C2C(C=C(Cl)Cl)C2(C)C)C1=O (stereo not shown) [Present compound (2), 1-Allyl-3-hydantoinylmethyl 2,2-dimethyl-3-(2,2-dichlorovinyl)-cyclopropanecarboxylate] |  |  | hardly any damage was observed | 100 |  |  | 100 |  |  |  |  |  |  |  |  |
| C#CCN1CC(=O)N(COC(=O)[C@@H]2[C@@H](C=C(F)F)C2(C)C)C1=O [Present compound (6)] | 100 | 19 | hardly any damage was observed | 100 | 70 | 46 |  | 47 | 74 | 79 | 79 | 100 |  |  |  |
| C#CCN1CC(=O)N(COC(=O)C2C(C)(C)C2(C)C)C1=O [Present compound (9), 1-Propargyl-3-hydantoinylmethyl 2,2,3,3-tetramethylcyclopropanecarboxylate] |  | 35 | hardly any damage was observed |  |  | 150 |  | 15 | 55 | 60 | 70 | 80 | 95 | 100 | 20 |
| C#CCN1CC(=O)N(COC(=O)C(c2ccc(Cl)cc2)C(C)C)C1=O (stereo not drawn) [Present compound (13), 1-Propargyl-3-hydantoinylmethyl α-(4-chlorophenyl)isovalerate] |  |  | hardly any damage was observed |  |  |  | 90 |  |  |  |  |  |  | 100 |  |

Reference: patent US4176189A, “Insecticidal and acaricidal hydantoin N-methylol esters” (Sumitomo Chemical Company, Limited, priority 1977, dated 1979)
